From PubChem BioAssay AID2053 (NMMLSC, 2009)

Target: GTPase HRas (Homo sapiens) (UniProt P01112)
Experiment: Ras wild-type GTP-binding inhibitors, SAR follow-up, biochemical, oxadiazole analogs, multiplex bead flow cytometry (AID 2053)
Details: GST-Ras beads, Bodipy-FL-GTP binding, Ki calculated from EC50

Chain of GTPase HRas (Homo sapiens) (P01112 whole entry, looked up): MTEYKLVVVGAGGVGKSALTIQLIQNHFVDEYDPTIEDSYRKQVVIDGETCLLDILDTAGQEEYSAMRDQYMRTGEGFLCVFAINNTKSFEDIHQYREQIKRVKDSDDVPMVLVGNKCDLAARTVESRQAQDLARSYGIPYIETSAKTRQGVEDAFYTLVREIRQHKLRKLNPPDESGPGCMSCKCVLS

| SMILES | Ki |
| --- | --- |
| Cc1ccc(C)c(N2CCN(C(=O)CCc3nc(-c4ccc(Br)cc4)no3)CC2)c1 | 290 nM |
| Cc1ccc(C)c(N2CCN(C(=O)CCc3nc(-c4ccccc4)no3)CC2)c1 | 140 nM |
| COc1ccc(-c2noc(CCC(=O)N3CCN(c4ccccc4Cl)CC3)n2)cc1 | 290 nM |
| COc1ccc(-c2noc(CCC(=O)N3CCN(c4cc(C)ccc4C)CC3)n2)cc1 | 270 nM |
| COc1cccc(-c2noc(CCC(=O)N3CCN(c4cc(C)ccc4C)CC3)n2)c1 | 230 nM |

Now those with a lower Ki, led by results:

| Ki | SMILES |
| --- | --- |
| 10 nM | COc1ccc(-c2noc(CCC(=O)N3CCN(c4ccccc4F)CC3)n2)cc1 |
| 10 nM | Cc1ccc(C)c(N2CCN(C(=O)CCc3nc(-c4ccccc4Br)no3)CC2)c1 |
